The source made the active and inactive calls. No cut-off for these calls is given here. Some results are limits rather than exact numbers.

Data set [1] has as its target Tyrosine-protein kinase JAK3 (Homo sapiens) (UniProt P52333). The data set is described as follows: Inhibition of JAK3 (unknown origin) at 1 uM by cell based assay.
Another data set is described as follows: physchem. The conditions noted are these: octanol/water.
The subject of data set [2] is Canis familiaris. The data set is described as follows: Toxicity in dog assessed as effect on heart rate administered as repeated dosing. It is filed as organism-based, Canis lupus familiaris. The conditions noted are these: in vivo.
The nature of data set [3]: Terminal half life in Nu/Nu mouse at 1 mg/kg, iv administered as single dose. The format is ADME, organism-based. The conditions noted are these: in vivo, read-out: beta t1/2 (converted).
The nature of data set [4]: Half life in CD-1 mouse blood at 1 uM by LC-MS/MS analysis. The format is ADME, tissue-based.
Data set [5] deals with Tyrosine-protein kinase BTK (Homo sapiens) (UniProt Q06187). The data set is described as follows: Inhibition of BTK (unknown origin) at 1 uM by cell based assay.
Data set [6] deals with Activated CDC42 kinase 1 (Homo sapiens) (UniProt Q07912). The data set is described as follows: Inhibition of GST-tagged recombinant human ACK catalytic domain (110 to 476 residues) expressed in Baculovirus expression system at 1 uM by FRET-based Z'-LYTE assay.
Sequence of Activated CDC42 kinase 1 (Homo sapiens) (Q07912 whole entry, looked up, the tested form may be a part): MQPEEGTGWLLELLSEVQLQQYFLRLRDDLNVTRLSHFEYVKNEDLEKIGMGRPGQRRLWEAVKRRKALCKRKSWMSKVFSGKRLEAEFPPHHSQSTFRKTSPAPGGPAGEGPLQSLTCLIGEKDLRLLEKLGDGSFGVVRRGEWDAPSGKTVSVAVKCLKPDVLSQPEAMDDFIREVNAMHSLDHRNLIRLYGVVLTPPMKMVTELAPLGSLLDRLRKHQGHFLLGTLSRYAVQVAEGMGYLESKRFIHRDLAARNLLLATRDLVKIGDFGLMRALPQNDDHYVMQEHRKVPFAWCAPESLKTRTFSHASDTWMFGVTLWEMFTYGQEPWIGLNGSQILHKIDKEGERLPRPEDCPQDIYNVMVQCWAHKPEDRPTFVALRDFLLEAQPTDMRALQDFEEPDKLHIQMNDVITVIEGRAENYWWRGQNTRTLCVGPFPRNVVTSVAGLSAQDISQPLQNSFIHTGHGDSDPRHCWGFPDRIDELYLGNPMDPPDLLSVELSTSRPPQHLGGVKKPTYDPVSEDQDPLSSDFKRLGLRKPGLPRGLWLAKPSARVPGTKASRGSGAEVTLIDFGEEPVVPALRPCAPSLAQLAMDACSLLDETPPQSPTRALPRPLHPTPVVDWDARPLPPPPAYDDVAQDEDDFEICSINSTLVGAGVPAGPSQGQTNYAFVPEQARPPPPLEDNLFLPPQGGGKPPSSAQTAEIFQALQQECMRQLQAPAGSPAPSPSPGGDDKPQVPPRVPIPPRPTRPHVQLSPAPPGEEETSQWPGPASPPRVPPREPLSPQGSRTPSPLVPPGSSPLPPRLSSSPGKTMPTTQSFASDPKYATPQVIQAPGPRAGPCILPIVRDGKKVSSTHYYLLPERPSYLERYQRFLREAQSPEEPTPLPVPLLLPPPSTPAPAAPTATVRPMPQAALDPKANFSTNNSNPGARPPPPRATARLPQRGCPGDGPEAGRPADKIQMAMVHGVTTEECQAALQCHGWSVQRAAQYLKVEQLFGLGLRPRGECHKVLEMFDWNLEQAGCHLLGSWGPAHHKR
The test system of data set [7] is Canis familiaris. The data set is described as follows: Toxicity in dog assessed as effect on blood pressure administered as single dose. The format is organism-based, Canis lupus familiaris. The conditions noted are these: in vivo.
Data set [8] is described as follows: Drug metabolism in human hepatocytes assessed as demethylation. The format is ADME, cell-based, Hepatocyte.
Another data set can be described thus: in vitro. The conditions noted are these: dog, MDCK.
A further data set deals with CYP3A4 (Homo sapiens, UniProt P08684). The data set can be described thus: Inhibition of human CYP3A4 at 10 uM. The format is ADME.
Data set [9] has as its system Canis familiaris. The data set can be described thus: Toxicity in dog assessed as electrocardiogram changes administered as single dose. It is filed as organism-based, Canis lupus familiaris. The conditions noted are these: in vivo.
The test system of another data set is Rattus norvegicus. The data set is described as follows: Toxicity in rat assessed as body weight loss administered as repeated dosing for 91 days. It is filed as organism-based. Conditions: in vivo, 2184 h.
The target in data set [10] is Tyrosine-protein kinase Blk (Homo sapiens) (UniProt P51451). The data set is described as follows: Inhibition of BLK (unknown origin) at 1 uM by cell based assay.
Sequence of Tyrosine-protein kinase Blk (Homo sapiens) (P51451 2-505 limits assumed): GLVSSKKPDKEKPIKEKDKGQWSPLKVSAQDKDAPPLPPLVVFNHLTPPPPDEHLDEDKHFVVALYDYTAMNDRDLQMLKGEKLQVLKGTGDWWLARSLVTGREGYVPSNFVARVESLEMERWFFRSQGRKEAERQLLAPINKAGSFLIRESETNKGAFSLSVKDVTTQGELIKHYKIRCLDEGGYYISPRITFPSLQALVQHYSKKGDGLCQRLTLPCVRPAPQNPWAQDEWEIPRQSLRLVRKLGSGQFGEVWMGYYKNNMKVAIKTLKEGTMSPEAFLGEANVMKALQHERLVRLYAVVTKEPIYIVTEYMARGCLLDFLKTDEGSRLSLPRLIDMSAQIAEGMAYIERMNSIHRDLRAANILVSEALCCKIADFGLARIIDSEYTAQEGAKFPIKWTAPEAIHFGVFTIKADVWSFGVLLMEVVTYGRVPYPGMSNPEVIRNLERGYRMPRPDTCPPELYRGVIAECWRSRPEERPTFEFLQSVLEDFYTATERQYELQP
Data set [11] is described as follows: Oral bioavailability in Wistar Han rat at 30 mg/kg administered as single dose. It is filed as ADME, organism-based. The conditions noted are these: in vivo.
The target of data set [12] is Proto-oncogene tyrosine-protein kinase ROS (Homo sapiens) (UniProt P08922). The data set is described as follows: Inhibition of ROS (unknown origin) at 1 uM by cell based assay.
Sequence of Proto-oncogene tyrosine-protein kinase ROS (Homo sapiens) (P08922 whole entry): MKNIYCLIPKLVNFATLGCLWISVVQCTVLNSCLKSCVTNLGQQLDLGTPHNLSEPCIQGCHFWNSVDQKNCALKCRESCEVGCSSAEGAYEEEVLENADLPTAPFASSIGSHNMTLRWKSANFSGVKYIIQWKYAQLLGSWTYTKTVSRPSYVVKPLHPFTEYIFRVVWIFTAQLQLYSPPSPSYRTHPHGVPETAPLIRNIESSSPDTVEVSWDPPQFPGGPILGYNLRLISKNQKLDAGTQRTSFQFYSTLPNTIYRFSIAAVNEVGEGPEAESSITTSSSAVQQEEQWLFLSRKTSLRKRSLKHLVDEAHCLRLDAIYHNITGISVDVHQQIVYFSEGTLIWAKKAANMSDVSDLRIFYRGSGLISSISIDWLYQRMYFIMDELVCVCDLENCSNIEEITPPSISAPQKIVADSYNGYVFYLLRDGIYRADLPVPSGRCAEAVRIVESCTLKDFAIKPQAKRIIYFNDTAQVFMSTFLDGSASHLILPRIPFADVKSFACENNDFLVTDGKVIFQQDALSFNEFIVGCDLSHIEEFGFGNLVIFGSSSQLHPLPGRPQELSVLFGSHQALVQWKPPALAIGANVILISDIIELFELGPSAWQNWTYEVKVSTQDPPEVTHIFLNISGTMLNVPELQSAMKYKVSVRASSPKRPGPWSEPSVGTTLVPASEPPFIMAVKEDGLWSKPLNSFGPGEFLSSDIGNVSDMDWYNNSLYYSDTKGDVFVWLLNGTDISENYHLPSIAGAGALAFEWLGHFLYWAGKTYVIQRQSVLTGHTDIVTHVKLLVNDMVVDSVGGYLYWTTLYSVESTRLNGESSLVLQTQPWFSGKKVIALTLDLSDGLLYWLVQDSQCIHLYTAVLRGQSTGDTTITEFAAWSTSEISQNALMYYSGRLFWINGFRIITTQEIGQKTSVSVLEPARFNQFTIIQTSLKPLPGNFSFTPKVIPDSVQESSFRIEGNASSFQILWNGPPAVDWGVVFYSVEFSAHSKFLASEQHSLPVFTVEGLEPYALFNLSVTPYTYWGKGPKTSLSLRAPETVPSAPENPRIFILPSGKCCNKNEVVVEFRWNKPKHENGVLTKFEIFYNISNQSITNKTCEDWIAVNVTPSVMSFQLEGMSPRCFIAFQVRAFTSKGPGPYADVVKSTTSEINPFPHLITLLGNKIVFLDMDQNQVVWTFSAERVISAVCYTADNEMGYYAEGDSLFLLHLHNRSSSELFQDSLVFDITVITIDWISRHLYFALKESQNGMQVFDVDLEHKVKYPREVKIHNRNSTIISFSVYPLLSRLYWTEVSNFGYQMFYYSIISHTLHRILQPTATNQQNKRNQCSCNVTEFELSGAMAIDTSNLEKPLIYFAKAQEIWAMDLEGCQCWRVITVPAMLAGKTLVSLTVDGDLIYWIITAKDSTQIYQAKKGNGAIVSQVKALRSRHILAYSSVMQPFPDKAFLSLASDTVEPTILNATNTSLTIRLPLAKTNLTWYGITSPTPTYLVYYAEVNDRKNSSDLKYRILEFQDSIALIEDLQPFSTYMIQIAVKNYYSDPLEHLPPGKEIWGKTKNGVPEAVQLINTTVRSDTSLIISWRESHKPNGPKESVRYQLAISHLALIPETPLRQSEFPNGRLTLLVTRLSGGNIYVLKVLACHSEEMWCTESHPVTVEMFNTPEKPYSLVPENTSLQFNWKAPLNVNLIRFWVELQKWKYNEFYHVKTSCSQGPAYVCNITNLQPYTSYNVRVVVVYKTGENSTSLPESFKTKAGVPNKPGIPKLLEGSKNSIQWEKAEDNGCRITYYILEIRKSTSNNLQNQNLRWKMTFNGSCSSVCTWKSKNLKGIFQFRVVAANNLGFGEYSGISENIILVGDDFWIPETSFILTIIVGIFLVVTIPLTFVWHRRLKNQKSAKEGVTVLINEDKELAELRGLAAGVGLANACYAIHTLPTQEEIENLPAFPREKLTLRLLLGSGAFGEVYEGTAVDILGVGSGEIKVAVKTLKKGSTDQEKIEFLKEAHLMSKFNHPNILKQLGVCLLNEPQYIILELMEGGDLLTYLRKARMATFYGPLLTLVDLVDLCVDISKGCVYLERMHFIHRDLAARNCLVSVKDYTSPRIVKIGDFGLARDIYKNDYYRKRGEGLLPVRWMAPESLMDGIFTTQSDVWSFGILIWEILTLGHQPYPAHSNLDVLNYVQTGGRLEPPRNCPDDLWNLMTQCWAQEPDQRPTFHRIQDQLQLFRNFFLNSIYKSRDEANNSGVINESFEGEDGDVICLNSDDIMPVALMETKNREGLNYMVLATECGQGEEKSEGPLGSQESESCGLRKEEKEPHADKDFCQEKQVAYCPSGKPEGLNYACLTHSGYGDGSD
The nature of data set [13]: Apparent intrinsic hepatic clearance in rat hepatocytes. It is filed as ADME, cell-based, Hepatocyte. Conditions: read-out: CLH(app).
Data set [14] can be described thus: Fraction unbound in rat plasma at 2 uM by LC-MS/MS based equilibrium dialysis method. The format is ADME, cell-free. On the technique in general: In equilibrium dialysis only unbound substance equilibrates across the membrane.
A further data set concerns Hepatocyte. Conditions: human, hepatocytes, 1 µM.
The target in data set [15] is Voltage-gated inwardly rectifying potassium channel KCNH2 (Homo sapiens, UniProt Q12809). The data set is described as follows: Inhibition of human ERG.
Data set [16] can be described thus: Clearance in Beagle dog plasma at 1 mg/kg, iv administered as single dose. It is filed as ADME, organism-based, Canis lupus familiaris.

Sequence of Tyrosine-protein kinase JAK3 (Homo sapiens) (P52333 whole entry): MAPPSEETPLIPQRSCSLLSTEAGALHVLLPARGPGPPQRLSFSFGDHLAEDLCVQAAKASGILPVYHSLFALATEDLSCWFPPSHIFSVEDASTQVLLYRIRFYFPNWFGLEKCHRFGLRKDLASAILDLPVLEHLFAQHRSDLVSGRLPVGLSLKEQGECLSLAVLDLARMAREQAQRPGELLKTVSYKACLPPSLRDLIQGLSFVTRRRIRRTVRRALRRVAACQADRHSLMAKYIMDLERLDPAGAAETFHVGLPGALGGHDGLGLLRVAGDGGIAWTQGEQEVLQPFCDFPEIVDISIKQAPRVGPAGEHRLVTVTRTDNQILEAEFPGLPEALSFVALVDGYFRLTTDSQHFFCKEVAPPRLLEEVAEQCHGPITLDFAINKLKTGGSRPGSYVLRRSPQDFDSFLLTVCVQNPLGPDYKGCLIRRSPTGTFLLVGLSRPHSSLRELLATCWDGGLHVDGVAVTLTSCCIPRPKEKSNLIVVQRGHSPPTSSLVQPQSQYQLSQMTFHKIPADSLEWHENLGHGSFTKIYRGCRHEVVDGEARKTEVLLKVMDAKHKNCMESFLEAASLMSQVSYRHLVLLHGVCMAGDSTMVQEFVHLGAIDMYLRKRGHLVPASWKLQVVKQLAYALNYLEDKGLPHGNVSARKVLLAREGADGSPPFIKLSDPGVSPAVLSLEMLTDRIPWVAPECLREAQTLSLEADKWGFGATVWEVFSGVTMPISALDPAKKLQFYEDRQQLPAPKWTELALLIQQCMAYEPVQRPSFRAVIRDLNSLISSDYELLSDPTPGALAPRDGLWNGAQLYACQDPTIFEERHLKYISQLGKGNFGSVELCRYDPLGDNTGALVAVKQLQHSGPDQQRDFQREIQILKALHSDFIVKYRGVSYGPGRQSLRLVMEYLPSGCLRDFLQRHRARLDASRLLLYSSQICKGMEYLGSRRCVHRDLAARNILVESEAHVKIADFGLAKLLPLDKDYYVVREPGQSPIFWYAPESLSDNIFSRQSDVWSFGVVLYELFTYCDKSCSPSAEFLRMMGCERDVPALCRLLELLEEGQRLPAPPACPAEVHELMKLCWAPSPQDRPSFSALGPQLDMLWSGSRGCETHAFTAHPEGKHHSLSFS

By inhibition is commonly meant the drop in the measured response relative to a control, in per cent. Broadly, the logD is the decadic logarithm of the distribution of all forms, ionised or not, between an organic phase and buffer at a given pH. A higher logD goes with a more lipophilic compound. For orientation: Papp means the rate of passage across a membrane or cell layer, normalised by area and donor concentration. In general, bioavailability refers to the share of a dose that reaches the circulation, judged against a reference dose that is usually intravenous. A word on the fraction unbound: it is free concentration divided by total concentration. Read a high fraction unbound as weak binding. The IC50 is the midpoint of a concentration-inhibition curve. A low value points to greater potency. Broadly, the clearance is a measure of how efficiently the substance is removed, as volume per time. A low value points to inefficient removal. `C=CC(=O)N[C@@H]1CN(c2nc(Nc3cn(C)nc3OC)c3ncn(C)c3n2)C[C@H]1F` [MAVELERTINIB]: the inhibition entry in data set [1], in data set [5], in data set [10] and in data set [12] was “Active” each time. In addition, in the data set “physchem”, the logD is 2. The Activity entry with Canis familiaris [2], with Canis familiaris [7], in the data set with Canis familiaris [9] and with Rattus norvegicus was “Non-Toxic” in each case. For the same compound, in data set [3], the half-life is 0.56 h. This compound registered a half-life at 1 µM in data set [4] of 5.1 h. Further, the inhibition in data set [6] is more than 50%. The Drug metabolism result in data set [8] was “Metabolite_Detected”. Further, the apparent permeability (Papp) in the data set “in vitro” stood at 9 ×10⁻⁶ cm/s. The same compound returned an inhibition at 10 µM at CYP3A4 of less than 30%. This compound showed a bioavailability in data set [11] of 11%. The CLint scaled in data set [13] was found to be 183 mL/min/kg. Also, in data set [14], the fraction unbound at 2 µM came out at 0.22. This compound came in with a CLH in the data set with Hepatocyte of 3 µL/min/mg. The compound also registered an IC50 in [15] of more than 100 µM. The same compound registered a clearance in data set [16] of 12 mL/min/kg.

The values above are taken from ChEMBL document CHEMBL4177539, “Discovery of N-((3R,4R)-4-Fluoro-1-(6-((3-methoxy-1-methyl-1H-pyrazol-4-yl)amino)-9-methyl-9H-purin-2-yl)pyrrolidine-3-yl)acrylamide (PF-06747775) through Structure-Based Drug Design: A High Affinity Irreversible Inhibitor Targeting Oncogenic EGFR Mutants with Selectivity over Wild-Type EGFR” (J Med Chem, 2017).
